Read-outs that look alike come from different tables or passages of the source.
Columns and labels:
velvetleaf (ABUTH) = settings: 21 days after treatment
Method: In this example, the herbicidal effectiveness of selected dicamba salts prepared in accordance with Example 1 was evaluated in greenhouse testing. The herbicidal effectiveness data set forth herein report “Weed killing efficacy” as a percentage following a standard procedure in the art which reflects a visual assessment of plant mortality and growth reduction by comparison with untreated plants, made by technicians specially trained to make and record such observations. Such measurements are relied upon and regularly reported by Monsanto Company in the course of its herbicide business.
The following procedure was used for testing compositions of this example to determine herbicidal effectiveness.
Seeds of velvetleaf (ABUTH) were planted in 85 mm square pots in a soil mix which was previously steam sterilized and prefertilized with a 14-14-14 NPK slow release fertilizer at a rate of 3.6 kg/m^3. The pots were placed in a greenhouse with sub-irrigation. About one week after emergence, seedlings were thinned as needed, including removal of any unhealthy or abnormal plants, to create a uniform series of test pots.
The plants were maintained for the duration of the test in the greenhouse where they received a minimum of 14 hours of light per day. If natural light was insufficient to achieve the daily requirement, artificial light with an intensity of approximately 475 microeinsteins was used to make up the difference. Exposure temperatures were not precisely controlled but averaged about 27° C. during the day and about 21° C. during the night. Plants were sub-irrigated throughout the test to ensure adequate soil moisture levels.
Application of herbicide salt solutions were made by spraying with a track sprayer fitted with a 9501E nozzle calibrated to deliver a spray volume of approximately 38 liters per hectare (l/ha). After treatment, pots were returned to the greenhouse until ready for evaluation.
For evaluation of herbicidal effectiveness, all plants in the test were examined by a single practiced technician, who recorded percent control, a visual measurement of the effectiveness of each treatment by comparison with untreated plants. […] Control of 85% or more is in most cases considered acceptable for normal herbicide use. […] The weed killing efficacy was evaluated 21 days after the treatment.

[1] = Tube test: dicamba volatilized from spray solution into air; type: physicochemical; settings: air about 35° C., about 40% RH, 24 hours
Method: Volatility reduction may be quantified experimentally by methods known in the art. In one method the volatility of solutions containing a herbicide salt can be measured in the gas phase (air) via tube tests. In a tube test, a sample of the herbicide solution is placed in a test tube that has been modified to allow air flow through the tube. A selective collection medium is attached to the outlet of the tube to collect volatilized herbicide. The collection medium is then analyzed for the respective herbicide. For further details see the Tube Test Protocol described in Example 2.
(§1) In this example, various salts of dicamba prepared in Example 1 were selected for volatility testing. As described below, spray solutions containing the selected dicamba salts were prepared and subjected to volatility testing via the tube test and/or humidome protocols. Typically, the spray solutions containing the selected dicamba salts also contained potassium glyphosate co-herbicide. Aqueous test spray solutions containing selected salts of dicamba and potassium glyphosate were prepared by mixing a solution of dicamba salt with a solution of potassium glyphosate salt and adjusting the relative proportion and/or diluting with water to arrive at the desired concentration of dicamba and glyphosate.
To measure the dicamba concentration in the gas phase (air) volatilized from the spray solutions, 10 mL samples of each solution were placed into a 50 mL plastic centrifuge tube with one hole approximately ⅛ in (3.2 mm) diameter drilled into the tube at the mark between 20 mL and 30 mL lines. A 22 mm×30 mm polyurethane foam (PUF), cut from a 76 mm length, available from SKC Inc., catalog #P22692, was placed into a glass tube of approximately 20 mm diameter with parafilm wrapped around the outside to obtain a snug fit into the top of the centrifuge tube. A hose was connected to the other end of the glass tube leading to a vacuum line. The air flow was regulated to approximately 2 L/min using a flow controller. Air was pulled through the tube at approximately 2 L/min for 24 hours. Note that the air conditions of flow rate, temperature, pressure and composition (e.g., relative humidity) are not narrowly critical as long as the various samples are analyzed under similar conditions. For instance, air at from about 5° C. to about 40° C., from about 0.5 to about 1.5 bar pressure, from about 0% to about 95% relative humidity, and at a flow rate of from about 0.1 to 10 L/min-mL sample could be suitably used for volatility analysis. In this test, the air pulled through the tubes was at about 35° C. and about 40% relative humidity. The PUF was removed from the glass tube, extracted with 20 mL methanol and the resulting solution analyzed for dicamba concentration using liquid chromatography-mass spectroscopy (LC-MS) methods known in the art.
For comparison, samples of spray solutions containing 2 wt. % a.e. of the diglycolamine salt of dicamba (i.e., CLARITY) were also subjected to the tube test protocol.
(§2) The reduction in volatility is calculated relative to the volatility of the samples containing the diglycolamine salt of dicamba.

[2] = Humidome test: dicamba volatilized into air from spray solution applied to soil; type: physicochemical; settings: sprayed on soil at 10 GPA, 24 hours, vs CLARITY without glyphosate
Description: In another method, the volatility of solutions containing a herbicide salt can be evaluated by measuring herbicide concentrations in the gas phase (air) through air sampling in humidome plant growth chambers, which are maintained at constant temperature and humidity. For further details see the Humidome Protocol described in Example 2.
as §1
Humidomes were obtained from Hummert International (Part Nos 14-3850-2 for humidomes and 11-3050-1 for 1020 flat tray) and modified by cutting a 2.2 cm diameter hole on one end approximately 5 cm from the top to allow for insertion of a glass air sampling tube (22 mm OD) containing a polyurethane foam (PUF) filter. The sampling tube was secured with a VITON o-ring on each side of the humidome wall. The air sampling tube external to the humidome was fitted with tubing that was connected to a vacuum manifold immediately prior to sampling.
The flat tray beneath the humidome was filled with 1 liter of sifted dry or wet 50/50 soil (50% Redi-Earth and 50% US 10 Field Soil) to a depth of about 1 cm. To measure the dicamba concentration in the gas phase (air) volatilized from the spray solutions, samples of the spray solutions were sprayed over the soil in the humidome using a track sprayer at a rate of 10 gallons per acre (GPA). To avoid contamination of the sides of the flat tray, each tray was nested in an empty tray prior to spraying.
The flat tray bottom containing the dicamba formulation on soil was covered with a humidome lid and the lid was secured with clamps. The assembled humidomes were placed in a temperature and humidity controlled environment and connected to a vacuum manifold through the air sampling line. Air was drawn through the humidome and PUF at a rate of 2 liters per minutes (LPM) for 24 hours at which point the air sampling was stopped. The humidomes were then removed from the controlled environment and the PUF filter was removed. The PUF filter was extracted with 20 mL of methanol and the solution was analyzed for dicamba concentration using LC-MS methods known in the art.
For comparison, samples of spray solutions containing the diglycolamine salt of dicamba (i.e., CLARITY) at approximately the same weight percent a.e. as the tested dicamba salt sprays were subjected to the humidome tests.
as §2

[3] = dicamba salt 2 wt. % a.e., potassium glyphosate 6 wt. % a.e., vs 2 wt. % a.e. CLARITY without glyphosate
[4] = dicamba salt 0.6 wt. % a.e., potassium glyphosate 0.9 wt. % a.e.
[5] = dicamba salt 0.6 wt. % a.e., potassium glyphosate 1.2 wt. % a.e.

CCc1ncc[nH]1.COc1c(Cl)ccc(Cl)c1C(=O)O [2-ethyl imidazolium dicamba]
Weed killing efficacy (%) (velvetleaf (ABUTH); application rate 140 g a.e./ha): 38.3%
Weed killing efficacy (%) (velvetleaf (ABUTH); application rate 280 g a.e./ha): 67.5%
Weed killing efficacy (%) (velvetleaf (ABUTH); application rate 560 g a.e./ha): 80.8%

CCc1nc(C)c[nH]1.COc1c(Cl)ccc(Cl)c1C(=O)O [2-ethyl-4-methyl imidazolium dicamba]
Weed killing efficacy (%) (velvetleaf (ABUTH); application rate 140 g a.e./ha): 30.0%
Weed killing efficacy (%) (velvetleaf (ABUTH); application rate 280 g a.e./ha): 62.5%
Weed killing efficacy (%) (velvetleaf (ABUTH); application rate 560 g a.e./ha): 83.3%

COc1c(Cl)ccc(Cl)c1C(=O)O.Cc1ncc[nH]1 [2-methyl imidazolium dicamba]
Weed killing efficacy (%) (velvetleaf (ABUTH); application rate 140 g a.e./ha): 40.0%
Weed killing efficacy (%) (velvetleaf (ABUTH); application rate 280 g a.e./ha): 66.7%
Weed killing efficacy (%) (velvetleaf (ABUTH); application rate 560 g a.e./ha): 85.0%

C1CCC(N2CCNCC2)CC1.COc1c(Cl)ccc(Cl)c1C(=O)O [Salt 3]
Volatility Reduction Over DGA Dicamba Spray (%) Tube Test [1, 3]: 75%

COc1c(Cl)ccc(Cl)c1C(=O)O.OCCN1CCNCC1 [Salt 4]
Volatility Reduction Over DGA Dicamba Spray (%) Tube Test [1, 3]: 69%

CCCCN1CCNCC1.COc1c(Cl)ccc(Cl)c1C(=O)O [Salt 5]
Volatility Reduction Over DGA Dicamba Spray (%) Tube Test [1, 3]: 70%

CCN1CCNCC1.COc1c(Cl)ccc(Cl)c1C(=O)O [Salt 6]
Volatility Reduction Over DGA Dicamba Spray (%) Tube Test [1, 3]: 83%

CC(C)c1ncc[nH]1.COc1c(Cl)ccc(Cl)c1C(=O)O [Salt 9]
Volatility Reduction Over DGA Dicamba Spray (%) Humidome Test [2, 4]: 63%
Volatility Reduction Over DGA Dicamba Spray (%) Humidome Test [2, 5]: 67%
Volatility Reduction Over DGA Dicamba Spray (%) Tube Test [1, 3]: 65%

CCc1nc(C)c[nH]1.COc1c(Cl)ccc(Cl)c1C(=O)O [Salt 10]
Volatility Reduction Over DGA Dicamba Spray (%) Humidome Test [2, 4]: 86%
Volatility Reduction Over DGA Dicamba Spray (%) Humidome Test [2, 5]: 85%
Volatility Reduction Over DGA Dicamba Spray (%) Humidome Test ([2]; dicamba salt 2.4 wt. % a.e., potassium glyphosate 4.8 wt. % a.e.): 86%
Volatility Reduction Over DGA Dicamba Spray (%) Tube Test [1, 3]: 72%
Volatility Reduction Over DGA Dicamba Spray (%) Tube Test ([1]; dicamba salt 10 wt. % a.e., no potassium glyphosate, vs 2 wt. % a.e. CLARITY): 88%

CCc1ncc[nH]1.COc1c(Cl)ccc(Cl)c1C(=O)O [Salt 11]
Volatility Reduction Over DGA Dicamba Spray (%) Humidome Test [2, 4]: 67%
Volatility Reduction Over DGA Dicamba Spray (%) Humidome Test [2, 5]: 60%
Volatility Reduction Over DGA Dicamba Spray (%) Tube Test [1, 3]: 67%

COc1c(Cl)ccc(Cl)c1C(=O)O.Cc1ncc[nH]1 [Salt 12]
Volatility Reduction Over DGA Dicamba Spray (%) Humidome Test [2, 4]: 46%
Volatility Reduction Over DGA Dicamba Spray (%) Humidome Test [2, 5]: 50%

COc1c(Cl)ccc(Cl)c1C(=O)O.Cc1c[nH]c(-c2ccccc2)n1 [Salt 14]
Volatility Reduction Over DGA Dicamba Spray (%) Humidome Test [2, 4]: 92%

CCCN1CCC(=O)CC1.COc1c(Cl)ccc(Cl)c1C(=O)O [Salt 16]
Volatility Reduction Over DGA Dicamba Spray (%) Tube Test [1, 3]: 20%

CC(C)CN1CCC(=O)CC1.COc1c(Cl)ccc(Cl)c1C(=O)O [Salt 17]
Volatility Reduction Over DGA Dicamba Spray (%) Tube Test [1, 3]: 57%

C1CCN(C2CCNCC2)CC1.COc1c(Cl)ccc(Cl)c1C(=O)O.COc1c(Cl)ccc(Cl)c1C(=O)O [Salt 19]
Volatility Reduction Over DGA Dicamba Spray (%) Tube Test [1, 3]: 23%

C(CC1CCNCC1)CC1CCNCC1.COc1c(Cl)ccc(Cl)c1C(=O)O.COc1c(Cl)ccc(Cl)c1C(=O)O [Salt 22]
Volatility Reduction Over DGA Dicamba Spray (%) Humidome Test [2, 4]: 68%
Volatility Reduction Over DGA Dicamba Spray (%) Tube Test [1, 3]: 60%

CN1CCN(C)CC1.COc1c(Cl)ccc(Cl)c1C(=O)O [Salt 23]
Volatility Reduction Over DGA Dicamba Spray (%) Tube Test [1, 3]: 23%

COc1c(Cl)ccc(Cl)c1C(=O)O.OCCN1CCN(CCO)CC1 [Salt 24]
Volatility Reduction Over DGA Dicamba Spray (%) Humidome Test [2, 4]: 76%
Volatility Reduction Over DGA Dicamba Spray (%) Tube Test [1, 3]: 57%
